# Reference: patent EP0974573A1, “PHENYLPROPENONE COMPOUNDS AND MEDICINES CONTAINING THE SAME” (Kabushiki Kaisha Yakult Honsha, priority 1997, dated 1998)
# Key:
# rat-derived ACAT = assay: Inhibitory effects on rat-derived ACAT (Test 1); format: biochemical; details: crude enzyme from microsome protein fractions of rat liver, (14C)-oleoyl-CoA substrate, 37°C
# Method: To test effects on ACAT, a reaction was conducted in vitro to form (^14C)-cholesteryl oleate from endogeneous cholesterol in the presence of (^14C)-oleoyl-CoA as a substrate by using a crude enzyme prepared from microzome protein fractions of a rat liver.
# The reaction mixture had the following composition: 20 µℓ of microsome protein (1.83 mg/mℓ), 20 µℓ of (^14C)-oleoyl-CoA (5 µCi/mℓ, BSA: 96 nmol/mℓ), 106 µℓ of 100 mM phosphate buffer (containing 5 mM of dithiothreitol, pH 7.4) and a sample dissolved in 4 µℓ of methanol or dimethyl sulfoxide; 150 µℓ in total.
# The reaction was conducted at 37°C. After an elapse of a predetermined reaction time (18 minutes in general), a 2:1 mixture of chloroform and methanol (5.65 mℓ) was added to terminate the reaction. A 0.04 N aquous solution of hydrochloric acid (0.98 mℓ) and as a carrier, cholesteryl oleate were added, followed by extraction for 20 minutes on a shaking apparatus. The mixture was then allowed to stand overnight in a cold dark place. On the following day, the separated lower chloroform layer was extracted in its entirety and was dried under a nitrogen gas stream. The remaining upper layer was added with the lower layer (5.65 mℓ) of the Folch's partition solution, and was extracted again. After the mixture was allowed to stand overnight in a dark place, the lower layer was drawn in its entirety. This lower layer was combined with the lower chloroform layer fraction, which had already been dried to solid, and the mixture was then dried to solid.
# The solid was then dissolved in chlorofrom (200 µℓ), and the solution was coated in its entirety on a G60 plate (aluminum sheet) for silica gel thin layer chromatography. After the solid was developedover 10 cm with a 10:190 mixture of diethyl ether and petroleum ether, autoradiography was conducted and the formation of (^14C)-colesteryl oleate was confirmed. This section was then cut off. The radioactivity of each sample was measured by subjecting it to liquid scintillation counting for 5 minutes in toluene or was measured for 30 minutes by a "Betascope" (manufactured by BETA-GEN INC. The results so obtained are shown in Table 1. Table 1
# SD rats [1] = assay: Provisional toxicity test of Compound 6; format: in vivo, rat; details: female SD rats, oral by stomach tube in 1.5% CMC, 14 days or 28 days, 100, 250 or 250 mg/kg/day
# Method: Concerning Compound 6, a provisional toxicity test was conducted.
# Using female SD rats (5-weeks old), the test was conducted at a size of 6 rats per group. The animals were subjected to group feeding, and were allowed to take both "F-2 Feed" (product of FUNABASHI FARM CO., LTD.) and tap water ad libitum.
# Compound 6 which had been suspended in a 1.5% aqueous solution of CMC was continuously and orally administered by a stomach tube for 14 days or 28 days such that the dosage became 100, 250 or 250 mg/kg/day. To a control group, on the other hand, an aqueous solution of CMC was administered.
# Therefore, safety has been confirmed.
# SD rats [2] = assay: Plasma cholesterol elevation inhibitory effects of Compound 6 on rats, oral suspension in carboxymethylcellulose (Test 10); format: in vivo, rat; details: 7 days; for HDLC: plasma HDL cholesterol; for PL: plasma phospholipid; for TC: plasma total cholesterol; for TG: plasma triglyceride
# Excerpt: Using 5-week old male SD rats (120-150 g, 8 rats per group, group feeding), plasma cholesterol elevation inhibitory effects of compound 6 in Examples on rats were studied.
# To rats in a control group, only a 1.5% aqueous solution of carboxymethylcellulose was orally administered once a day for 7 days. During the last 3 days, a hyperlipemia inducing diet [a feed prepared by adding 1.5% of cholesterol, 0.5% of cholic acid, 10% of coconut oil and 10% of sugar to "F-2 Diet" (product of FUNABASHI FARM CO., LTD.)] was given ad libitum. To rats in a control group (normal diet), however, a feed (normal diet) similar to the hyperlipemia inducing diet except for the exclusion of cholesterol was given ad libitum.
# To test-compound-administered groups, on the other hand, compound 6 suspended in a 1.5% aqueous solution of carboxymethylcellulose was continuously and orally administered at dosages of 5, 10 and 20 mg/kg/day, respectively, once a day for 7 days. During the last 3 days, a hyperlipemia inducing diet [a feed prepared by adding 1.5% of cholesterol, 0.5% of cholic acid, 10% of coconut oil and 10% of sugar to "F-2 Diet" (product of FUNABASHI FARM CO., LTD.)] was given ad libitum.
# On the 4th day after the initiation of feeding of the hyperlipemia inducing diet and the normal diet, bloods were drawn from the abdominal aortas of the individual rats under anesthesia with Nembutal. Subsequent to collection of plasma from each blood sample, the plasma cholesterol was quantitated by an "AUTOSERA S-CHO KIT" (product of Daiichi Pure Chemicals Co., Ltd.), the plasma triglyceride was guantitated by an "AUTOSERA TG-N KIT" (product of Daiichi Pure Chemicals Co., Ltd.), and the plasma phospholipid was quantitated by an "AUTOSERA PL KIT" (product of Daiichi Pure Chemicals Co., Ltd.). Further, the HDL cholesterol was quantitated by an "AUTOSERA S-CHO KIT" (product of Daiichi Pure Chemicals Co., Ltd.) after fractionating it by a "DETERMINER HDL KIT" (product of Kyowa Medex Co., Ltd.). The liver lipid level was quantitated by a commercial measuring kit in a similar manner as in the measurement of plasma lipid subsequent to its extraction by the Folch's method. Statistical processing of the data so obtained was conducted by the Dunnet's test.
# SD rats [3] = assay: Plasma cholesterol elevation inhibitory effects on rats loaded with high cholesterol diet, feed-mixed administration (Test 3); format: in vivo, rat; details: 0.005% of compound added to hyperlipemia inducing diet, ad libitum 3 days
# Excerpt: Using 5-week old male SD rats (120-150 g, 10 rats per group, individual feeding), plasma cholesterol elevation inhibitory effects of various compounds in the Examples on rats were studied. To a control group, a feed which had been prepared by adding 1.5% of cholesterol, 0.5% of cholic acid, 10% of coconut oil and 10% of sugar to "F-2 Diet" (product of FUNABASHI FARM CO., LTD.) was given ad libitum as a hyperlipemia inducing diet.
# To each test-compound-administered group, on the other hand, a feed which had been prepared by adding 0.005% of the corresponding compound in the Examples to the hyperlipemia inducing diet of the above-described composition was given ad libitum. Further, a normal diet group to which a feed similar to the hyperlipemia inducing diet except for the exclusion of cholesterol was also tested similarly. As a testing method, after these feeds were given ad libitum for 3 days, bloods were drawn on the 4th day from the abdominal aortas of the individual rats under anesthesia with Nembutal. Subsequent to collection of plasma from each blood sample, the plasma cholesterol was quantitated by a "DETERMINER TC555 KIT" (product of Kyowa Medex Co., Ltd.) while the HDL cholesterol was quantitated by "DETERMINER HDL KIT" (product of Kyowa Medex Co., Ltd.). The liver cholesterol was measured by extracting it in accordance with the Folch's method and then measuring it with a "DETERMINER TC555 KIT". Statistical processing of the data so obtained was conducted by the Danett's test.
# [4] = 5 mg/kg oral in carboxymethylcellulose
# [5] = 10 mg/kg oral in carboxymethylcellulose
# [6] = 20 mg/kg oral in carboxymethylcellulose
smiles,measurement,setting,value
"CCCCCCCCOc1c(OC)cc(/C=C/C(=O)NN2CCN(c3ccc(C)c(C)c3)CC2)cc1OC [Compound 6, N-[4-(3,4-dimethylphenyl)-1,4-diazacyclohexyl]-(2E)-3-(3,5-dimethoxy-4-octyloxyphenyl)-2-propenamide]",IC50,rat-derived ACAT,11 nM
same,difference between administered groups and control group in external appearance and results of various biochemical tests,SD rats [1],no difference was observed
same,Inhibitory rate (%) of plasma total cholesterol elevation,SD rats [2]; 5 mg/kg/day oral in 1.5% carboxymethylcellulose,34%
same,Inhibitory rate (%) of plasma total cholesterol elevation,SD rats [2]; 10 mg/kg/day oral in 1.5% carboxymethylcellulose,57%
same,Inhibitory rate (%) of plasma total cholesterol elevation,SD rats [2]; 20 mg/kg/day oral in 1.5% carboxymethylcellulose,66%
same,HDLC,SD rats [2]; [4],19.3 ± 4.5 mg/dL
same,HDLC,SD rats [2]; [5],20.5 ± 4.0 mg/dL
same,HDLC,SD rats [2]; [6],22.8 ± 2.2 mg/dL
same,PL,SD rats [2]; [4],243.2 ± 42.5 mg/dL
same,PL,SD rats [2]; [5],206.7 ± 50.6 mg/dL
same,PL,SD rats [2]; [6],203.6 ± 21.3 mg/dL
same,TC,SD rats [2]; [4],303.1 ± 99.4 mg/dL
same,TC,SD rats [2]; [5],226.6 ± 94.7 mg/dL
same,TC,SD rats [2]; [6],196.8 ± 44.1 mg/dL
same,TG,SD rats [2]; [4],202.3 ± 99.7 mg/dL
same,TG,SD rats [2]; [5],159.0 ± 68.6 mg/dL
same,TG,SD rats [2]; [6],187.6 ± 79.3 mg/dL
same,Inhibitory rate (%) of plasma total cholesterol elevation in rat,SD rats [3],79%
